# Reference: patent publication US20170081357A1, “[…] ACTIVE 17-NITROGEN SUBSTITUTED ESTRATREINTHIAZOLE DERIVATIVES AS INHIBITORS OF 17.BETA-HYDROXYSTEROID DEHYDROGENASE” (FORENDO PHARMA LTD, priority 2013, published 2017)
# Key:
# [1] = biological target: T1, recombinant human 17β-HSD1 (Homo sapiens, UniProt P14061); assay: Inhibition of recombinant human 17β-HSD1 (conversion of 3H-estrone to estradiol, HPLC); type: biochemical; conditions: inhibitor 1 μM; 30 nM estrone, 1 mM NADPH, 30 min at RT; read-out: 17β-HDS1 Inhibition % at 1 μM
# T1 construct: made in house; host or cells: Sd9 (Sf9) insect cells, baculovirus (Bac to Bac Expression System); microsomal fraction
# T1 sequence (P14061 1-328): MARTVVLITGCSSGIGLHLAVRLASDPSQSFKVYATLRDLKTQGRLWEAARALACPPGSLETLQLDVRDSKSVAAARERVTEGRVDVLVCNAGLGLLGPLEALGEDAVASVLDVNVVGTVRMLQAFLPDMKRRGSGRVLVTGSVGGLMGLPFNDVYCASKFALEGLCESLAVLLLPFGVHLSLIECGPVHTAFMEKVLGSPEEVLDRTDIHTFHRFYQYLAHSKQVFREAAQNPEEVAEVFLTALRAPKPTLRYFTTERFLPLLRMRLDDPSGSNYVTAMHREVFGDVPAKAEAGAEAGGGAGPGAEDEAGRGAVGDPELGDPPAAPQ
# Method: 17β-HSD1 production and isolation: Recombinant baculovirus was generated by the “Bac to Bac Expression System” (Invitrogen). Recombinant bacmid was transfected to Sd9 insect cells using “Cellfectin Reagent” (Invitrogen). 60 h later cells were harvested; the microsomal fraction was isolated as described by Puranen, T. J., Poutanen, M. H., Peltoketo, H. E., Vihko, P. T. and Vihko, R. K. (1994) Site-directed mutagenesis of the putative active site of human 17 β-hydroxysteroid dehydrogenase type 1. Biochem. J. 304: 289-293. Aliquots were stored frozen until determination of enzymatic activity.
# Assay—Inhibition of recombinant human 17β-HSD1: Recombinant protein (1 μg/ml) was incubated in 20 mM KH2PO4 pH 7.4 with 30 nM estrone (including 800 000 cpm/ml of ^3H-estrone) and 1 mM NADPH for 30 min at RT, in the presence of the potential inhibitor at concentrations 1 μM or 0.1 μM. Inhibitor stock solutions were prepared in DMSO. Final concentration of DMSO was adjusted to 1% in all samples. The enzyme reaction was stopped by addition of 10% trichloroacetic acid (final concentration). Samples were centrifuged in a microtiter plate at 4000 rpm for 10 min. Supernatants were applied to reverse phase HPLC on a Waters Symmetry C18 column, equipped with a Waters Sentry Guard column. Isocratic HPLC runs were performed at RT at a flow rate of 1 ml/min in acetonitrile:water 48:52 as running solvent. Radioactivity was monitored in the eluate by a Packard Flow Scintillation Analyzer. Total radioactivity for estrone and estradiol were determined in each sample and percent conversion of estrone to estradiol was calculated according to the following formula:
# (§1) Percent inhibition was calculated flowingly: % inhibition=100−% conversion
# [2] = biological target: T2, recombinant human 17β-HSD2 (Homo sapiens, UniProt P37059); assay: Inhibition of recombinant human 17β-HSD2 (conversion of 3H-estradiol to estrone, HPLC); type: biochemical; conditions: inhibitor 1 μM; 50 nM estradiol, 1 mM NADH, 30 min at RT
# T2 construct: made in house; host or cells: Sd9 (Sf9) insect cells, baculovirus (Bac to Bac Expression System); fractionated cell extract
# T2 sequence (P37059 1-387): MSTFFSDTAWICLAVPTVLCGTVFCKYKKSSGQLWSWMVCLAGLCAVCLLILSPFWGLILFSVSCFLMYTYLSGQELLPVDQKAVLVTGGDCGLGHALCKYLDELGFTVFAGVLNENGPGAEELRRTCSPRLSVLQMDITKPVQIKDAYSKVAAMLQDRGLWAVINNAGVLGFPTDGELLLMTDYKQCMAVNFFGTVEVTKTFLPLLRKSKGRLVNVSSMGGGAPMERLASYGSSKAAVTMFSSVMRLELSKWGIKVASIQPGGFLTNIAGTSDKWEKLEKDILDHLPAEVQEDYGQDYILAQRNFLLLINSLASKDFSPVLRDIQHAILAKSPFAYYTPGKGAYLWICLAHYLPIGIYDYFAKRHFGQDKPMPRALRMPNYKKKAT
# Method: 17β-HSD2 production and isolation: Similarly to 17β-HSD1 the Recombinant baculovirus was generated by the “Bac to Bac Expression System” (Invitrogen). Recombinant bacmid was transfected to Sd9 insect cells using “Cellfectin Reagent” (Invitrogen). 60 h later cells were harvested and supernatant were fractionated by the following protocol: • cells were dissolved into 40 ml of A-buffer (40 mM TRIS, pH8.0, 20% glycerol, 20 μM NAD, 0.4 mM PMSF, 150 mM NaCl, 0.5% dodecyl-β-maltoside+protease inhibitor cocktail) • cells were sonicated • lysate was incubated on ice for 15 min • lysate was centrifuged 5000 rpm 15 min, +4° C. • centrifugation of the supernatant 180 000 g 30 min, +4° C. • pellet was dissolved into 8 ml of A-buffer • not resuspended material was removed by centrifugation 5000 rpm 15 min, +4° C. • the clear supernatant was divided into 100 μl aliquots and were stored frozen until determination of enzymatic activity.
# The amount of 17β-HSD2 was analysed by immunoblotting and total protein concentration of each extract batch was determined.
# Assay—Inhibition of recombinant human 17β-HSD2: Recombinant protein (4 μg/ml) was incubated in 20 mM KH2PO4 pH 8.5 with 50 nM estradiol (including 800 000 cpm/ml of ^3H-estradiol) and 1 mM NADH for 30 min at RT, in the presence of the potential inhibitor at concentrations 1 μM or 0.1 μM. Inhibitor stock solutions were prepared in DMSO. Final concentration of DMSO was adjusted to 1% in all samples. The enzyme reaction was stopped by addition of 10% trichloroacetic acid (final concentration). Samples were centrifuged in a microtiter plate at 4000 rpm for 10 min. Supernatants were applied to reverse phase HPLC on a Waters Symmetry C18 column, equipped with a Waters Sentry Guard column. Isocratic HPLC runs were performed at RT at a flow rate of 1 ml/min in acetonitrile:water 48:52 as running solvent. Radioactivity was monitored in the eluate by a Packard Flow Scintillation Analyzer. Total radioactivity for estrone and estradiol were determined in each sample and percent conversion of estradiol to estrone was calculated according to the following formula:
# as §1
Compound,inhibition at 1 µM [1],inhibition at 1 µM [2]
"Cc1cnc(NC(=O)CC[C@@H]2c3c[nH]nc3[C@@]3(C)CCC4c5ccccc5CCC4C23)s1 (stereo partly drawn) [Compound 52, 3-((6aS,10S)-6a-methyl-4b,5,6,6a,8,10,10a,10b,11,12-decehydro-7,8-diaza-pentaleno[2,1-1]phenanthren-10-yl}-N-(5-methylthiazol-2-yl)propanamide]",94%,0%
"Cc1cnc(NC(=O)CC[C@@H]2c3c[nH]nc3[C@@]3(C)CCC4c5cc(Br)c(O)c(Br)c5CCC4C23)s1 (stereo partly drawn) [Compound 54, 3-((6aS,10S)-1,3-dibromo-2-hydroxy-6a-methyl-4b,5,6,6a,8,10,10a,10b,11,12-decehydro-7,8-diaza-pentaleno[2,1-1]phenanthren-10-yl}-N-(5-methylthiazol-2-yl)propanamide]",90%,13%
"Cc1cnc(NC(=O)CC[C@@H]2c3c[nH]nc3[C@@]3(C)CCC4c5ccc(O)c([N+](=O)[O-])c5CCC4C23)s1 (stereo partly drawn) [Compound 56, 3-((6aS,10S)-2-Hydroxy-6a-methyl-4-nitro-4b,5,6,6a,8,10,10a,10b,11,12-decehydro-7,8-diaza-pentaleno[2,1-1]phenanthren-10-yl}-N-(5-methylthiazol-2-yl)propanamide]",97%,39%
"Cc1cnc(NC(=O)CC[C@@H]2C(=C\O)/C(=N\O)[C@@]3(C)CCC4c5ccc(O)cc5CCC4C23)s1 (stereo partly drawn) [Compound 69, 3-{(13S,15S)-3-Hydroxy-17-[(Z)-hydroxyimino]-16-[1-hydroxy-meth-(E)-ylidene]-13-methyl-7,8,9,11,12,13,14,15,16,17-decahydro-6H-cyclopenta[a]phenanthren-15-yl}-N-(5-methylthiazol-2-yl)propanamide]",98%,2%
"Cc1cnc(NC(=O)CC[C@@H]2C(=C\O)/C(=N\O)[C@@]3(C)CCC4c5ccc(O)c(Br)c5CCC4C23)s1 (stereo partly drawn) [Compound 71, 3-{(13S,15S)-4-Bromo-3-hydroxy-17-[(Z)-hydroxyimino]-16-[1-hydroxy-meth-(E)-ylidene]-13-methyl-7,8,9,11,12,13,14,15,16,17-decahydro-6H-cyclopenta[a]phenanthren-15-yl}-N-(5-methylthiazol-2-yl)propanamide]",82%,7%
COc1cc2c(cc1/C(C)=N/O)C1CC[C@]3(C)/C(=N/O)C[C@@H](CCC(=O)Nc4ncc(C)s4)C3C1CC2 (stereo partly shown) [Compound 72],77%,3%
"CO/N=C1\C[C@@H](CCC(=O)Nc2ncc(C)s2)C2C3CCc4cc(OC)ccc4C3CC[C@]12C (stereo partly drawn) [Compound 74, 3-{(13S,15R)-3-Methoxy-17-[(E)-methoxyimino]-13-methyl-7,8,9,11,12,13,14,15,16,17-decahydro-6H-cyclopenta[a]phenanthren-15-yl}-N-(5-methylthiazol-2-yl)propanamide]",59%,2%
"CO/N=C1\C[C@@H](CCC(=O)Nc2ncc(C)s2)C2C3CCc4cc(OC)c(I)cc4C3CC[C@]12C (stereo partly drawn) [Compound 84, 3-{(13S,15R)-2-iodo-3-methoxy-17-[(E)-methoxyimino]-13-methyl-7,8,9,11,12,13,14,15,16,17-decahydro-6H-cyclopenta[a]phenanthren-15-yl}-N-(5-methylthiazol-2-yl)propanamide]",62%,1%
"CO/N=C1\C[C@@H](CCC(=O)Nc2ncc(C)s2)C2C3CCc4cc(O)c(CN5CCOCC5)cc4C3CC[C@]12C (stereo partly drawn) [Compound 98, 3-{(13S,15R)-3-Hydroxy-17-[(E)-methoxyimino]-13-methyl-2-morpholin-4-ylmethyl-7,8,9,11,12,13,14,15,16,17-decahydro-6H-cyclopenta[a]phenanthren-15-yl}-N-(5-methylthiazol-2-yl)propanamide]",57%,0%
"CO/N=C1\C[C@@H](CCC(=O)Nc2ncc(C)s2)C2C3CCc4cc(OC(C)=O)ccc4C3CC[C@]12C (stereo partly drawn) [Compound 100, Acetic acid (13S,15R)-17[(E)-methoxyimino]-13-methyl-15-[2-(5-methylthiazol-2-ylcarbamoyl)-ethyl]-7,8,9,11,12,13,14,15,16,17-decahydro-6H-cyclopenta[a]phenanthren-3-yl ester]",84%,1%
"CO/N=C1\C[C@@H](CCC(=O)Nc2ncc(C)s2)C2C3CCc4cc(OC(=O)CN(C)C)ccc4C3CC[C@]12C (stereo partly drawn) [Compound 101, Dimethylamino-acetic acid (13S,15R)-17[(E)-methoxyimino]-13-methyl-15-[2-(5-methylthiazol-2-ylcarbamoyl)-ethyl]-7,8,9,11,12,13,14,15,16,17-decahydro-6H-cyclopenta[a]phenanthren-3-yl ester]",88%,3%
"CCO/N=C1\C[C@@H](CCC(=O)Nc2ncc(C)s2)C2C3CCc4cc(O)ccc4C3CC[C@]12C (stereo partly drawn) [Compound 105, 3-{(13S,15R)-17-[(E)-Ethoxyimino]-3-hydroxy-13-methyl-7,8,9,11,12,13,14,15,16,17-decahydro-6H-cyclopenta[a]phenanthren-15-yl}-N-(5-methylthiazol-2-yl)propanamide]",94%,3%
"C=CCO/N=C1\C[C@@H](CCC(=O)Nc2ncc(C)s2)C2C3CCc4cc(O)ccc4C3CC[C@]12C (stereo partly drawn) [Compound 107, 3-{(13S,15R)-17-[(E)-Allyloxyimino]-3-hydroxyl-13-methyl-7,8,9,11,12,13,14,15,16,17-decahydro-6H-cyclopenta[a]phenanthren-15-yl}-N-(5-methylthiazol-2-yl)propanamide]",70%,3%
"C=CCO/N=C1\C[C@@H](CCC(=O)Nc2ncc(C)s2)C2C3CCc4cc(O)c([N+](=O)[O-])cc4C3CC[C@]12C (stereo partly drawn) [Compound 108, 3-{(13S,15R)-17-[(E)-Allyloxyimino]-3-hydroxyl-13-methyl-2-nitro-7,8,9,11,12,13,14,15,16,17-decahydro-6H-cyclopenta[a]phenanthren-15-yl}-N-(5-methylthiazol-2-yl)propanamide]",80%,1%
